Assays:
Assay type in all cases: cell-based, human
MU89 cell line = assay: Western blot (BRAF, Melan-A/MART-1, TRP-2, phosphorylated MEK and ERK)
Description: A. Western blot performed on extracts of the MU89 cell line treated as indicated for three days. Extracts were probed with antibodies to BRAF, Melan-A/MART-1, TRP-2, or beta-Actin. 30 μg of total protein was loaded in each lane of the gel. […] B. Protein gel electrophoresis was performed using 30 μg of total protein extracts prepared from the indicated cell lines. Cells were untreated (control) or treated with 0.15 μg/ml of BIIB021 for three days. After transfer Western blots were probed with antibodies to phosphorylated MEK (p-MEK) or β-Actin.
FIG. 17 is a series of Western blots that show changes in protein levels and state of phosphorylation after treatment with an Hsp90 inhibitor. A primary Anti BRAF (H145) antibody was used at a 1:5000 dilution. A secondary Goat anti rabbit antibody was used at a dilution of 1:5000. […]
To address the effect of Hsp90 inhibition on the MAP kinase pathway, protein levels and signaling activity (protein phosphorylation levels) of the proteins in this pathway were analyzed directly. […]
Cell lysates were prepared using RIPA buffer from Santa Cruz (Santa Cruz, Calif.) containing protease and phosphatase inhibitors. Protein concentrations were determined using Bradford assay from BioRad (Hercules, Calif.). […] Sizes of proteins were determined by comparison to the Broad prestained protein standard ladder from BioRad (Hercules, Calif.).

A375 tumor cells = assay: Western blot (BRAF, phosphorylated MEK and ERK)
Description: FIG. 17 is a series of Western blots that show changes in protein levels and state of phosphorylation after treatment with an Hsp90 inhibitor. A primary Anti BRAF (H145) antibody was used at a 1:5000 dilution. A secondary Goat anti rabbit antibody was used at a dilution of 1:5000. 30 ug total protein was added to each well.
Cell lysates were prepared using RIPA buffer from Santa Cruz (Santa Cruz, Calif.) containing protease and phosphatase inhibitors. Protein concentrations were determined using Bradford assay from BioRad (Hercules, Calif.). Equal amounts of protein were loaded in each well for PAGE analysis. Proteins were transferred to PVDF membranes from Pierce Biotechnology (Rockford, Ill.). Blocking and both primary and secondary antibody incubations were performed using Starting Block from Pierce (Rockford, Ill.). Blots were washed with 1×TBS with 0.5% tween 20. Primary antibodies used BRAF H-145 and TRP-2 from Santa Cruz (Santa Cruz, Calif.), and Phos ERK from Cell Signaling Technologies (Danvers, Mass.) beta actin from Sigma (St. Louis, Mo.). Goat anti-rabbit HRP conjugated secondary antibody was purchased from Pierce (Rockford, Ill.). Chemiluminesce was performed using the Femto kit form Pierce (Rockford, Ill.). […] Sizes of proteins were determined by comparison to the Broad prestained protein standard ladder from BioRad (Hercules, Calif.).

MM455 melanoma cell line = assay: Intracellular antibody staining and flow cytometry (gp100/HMB45); conditions: MM455 (BRAF M/WT, NRAS WT); 3 days; 17-AEP 0.50, CCT018159 2.50, PU-H71 0.25 μg/ml
Description: (§1) Several cell lines expressing varying native-sequences, (wild-type (WT) or mutant (M) alleles of these genes were evaluated), to determine if there is a relationship between levels of Hsp90 inhibitor-mediated antigen up-regulation and BRAF and NRAS mutational status. Mutant status of the NRAS and BRAF loci were determined previously.
(§2) Cells were plated at a density of 1×10^5 in 1 ml of medium in a 24-well plate and cultured for varying times as indicated in results. Typically, 3 days of culture in the presence of Hsp90 inhibitors was optimal for the functional studies performed. After incubation, cells were collected by trypsinization and then evaluated by flow cytometry.
(§3) Intracellular staining and flow cytometric analyses of cytoplasmic Melan-A/MART-1, and gp100 expression were performed as described previously. Cells were fixed with 1% formaldehyde, permeabilized with 0.1% saponin, stained with monoclonal antibodies to melanocyte antigens. Antibodies were obtained with specificity for: Melan-A/MART-1 from Vector Labs (Burlingame, Calif.); gp100/HMB45 from DakoCytomation (Carpinteria, Calif.) and then visualized with goat anti-mouse FITC-conjugated secondary antibody from Invitrogen (Frederick, Md.). The level of EGFP was determined by flow cytometry of unfixed cells washed and resuspended in 1×PBS. […]

Roth melanoma cell line = assay: as above; conditions: Roth (BRAF WT, NRAS M/M); 3 days; 17-AEP 0.50, CCT018159 2.50, PU-H71 0.25 μg/ml
Description: as §1, §2, §3

[1] = tested on: HeLa cervical carcinoma cells; assay: Surface antibody staining and flow cytometry (MHC Class I/II); conditions: for Class I MHC, geometric mean of surface staining (W6/32): 4 day IFN-β pre-treatment (5000 Units/ml), with PU-H71 0.3 where labelled (label IFN-β: no inhibitor)
[2] = tested on: MCF-7 breast cancer cells; assay: as above
Procedure, shortened: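 Cells pre-treated 4 days with IFN-beta, then re-plated for 3-day treatments. Harvested non-enzymatically and stained on ice for 30 min with W6/32 (Class I) or L243 (Class II), then FITC goat anti-mouse secondary; surface levels quantified by flow cytometry.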

tumor cell lines = assay: MHC Class I and Class II surface staining, statements over a panel of tumor cell lines; conditions: HeLa, MCF-7, U2-OS, MU-89, U118, Jurkat, Raji (Table 19)
Description: For surface staining of HLA Class I and II antigens, cells were harvested using CellStripper™ from Mediatech (Manassas, Va.). All staining steps were performed on ice. Following a first incubation with antibody to Class I (W6/32) or Class II (L243) for 30 minutes. Stained cells were washed twice with cold PBS and then stained with a goat anti-mouse FITC secondary antibody to allow for quantitative analysis by flow cytometry. For evaluation of cytoplasmic antigens, including Melan-A/MART-1 and gp100, cells were first fixed in paraformaldehyde and permeabilized with saponin as previously described. Staining for cytoplasmic antigens was carried out at room temperature (22° C.).

[3] = HeLa cells, Table 20, single agent or simultaneous combination
[4] = MCF-7 cells, Table 20, single agent or simultaneous combination

**Q.** For `CO[C@H]1/C=C\C=C(/C)C(=O)NC2=CC(=O)C(NCCN3CCCC3)=C(C[C@@H](C)C[C@H](OC)[C@H](O)[C@@H](C)/C=C(\C)[C@@H]1OC(N)=O)C2=O` [17-AEP], which “BRAF protein level (Western blot)” value (MU89 cell line; 3 days) is on record?
**A.** reduces levels of BRAF

**Q.** And the “Phosphorylated MEK and Phosphorylated ERK levels (Western blot)” value (MU89 cell line; 3 days (FIG. 17))?
**A.** decreased levels

**Q.** What about the “BRAF protein level (Western blot)” value (A375 tumor cells; 3 days) of the same molecule?
**A.** reduces levels of BRAF

**Q.** And the “Phosphorylated MEK and Phosphorylated ERK levels (Western blot)” value (A375 tumor cells; 3 days (FIG. 17))?
**A.** decreased levels

**Q.** Which results are given for `CCc1cc(-c2n[nH]c(C)c2-c2ccc3c(c2)OCCO3)c(O)cc1O` [CCT018159]?
**A.** HMB45, level of induction relative to untreated control cells (MM455 melanoma cell line): 1.16; HMB45, level of induction relative to untreated control cells (Roth melanoma cell line): 1.95

**Q.** `CC(C)NCCCn1c(Sc2cc3c(cc2I)OCO3)nc2c(N)ncnc21` [PU-H71] was tested. Which “L243 (MHC Class II surface staining)” value ([1]; HELA, single agent) did it give?
**A.** 3.5

**Q.** What about the “L243 (MHC Class II surface staining)” value [1, 3] of the same molecule?
**A.** 3.8

**Q.** And the “W6/32 (MHC Class I surface staining)” value [1, 3]?
**A.** 286.6

**Q.** What about the “L243 (MHC Class II surface staining)” value ([1]; HeLa cells, Table 21, no pre-treatment, treatment as labelled) of the same molecule?
**A.** 4

**Q.** And the “L243 (MHC Class II surface staining)” value ([1]; HeLa cells, Table 21, pre-treatment IFN-G (3 days), then treatment as labelled)?
**A.** 185

**Q.** And the “L243 (MHC Class II surface staining)” value ([1]; HeLa cells, Table 21, substance given as pre-treatment (3 days) only, no subsequent treatment)?
**A.** 6

**Q.** What about the “Class I MHC, geometric mean of surface staining (W6/32)” value (“Class I MHC, geometric mean” for short) ([1]; HeLa, then 3 days with fresh IFN-β) of the same molecule?
**A.** 137

**Q.** And the “Class I MHC, geometric mean” value ([1]; HeLa, then 3 days without IFN-β)?
**A.** 168

**Q.** And the “Class II antigen level, sequential treatment” value ([1]; HeLa, IFN-gamma for 3 days, subsequently PU-H71)?
**A.** significantly greater than that achieved with IFN-gamma alone

**Q.** What about the “Class I expression, combination” value ([1]; HeLa, PU-H71 together with IFN-beta) of the same molecule?
**A.** do not show the synergy

**Q.** And the “MHC Class II, geometric mean of surface staining (L2443)” value ([1]; HeLa, three days, IFN-β 5000 Units/ml, IFN-γ 100 ng/ml, PU-H71 0.3 mg/ml)?
**A.** 19

**Q.** What about the “MHC Class I, geometric mean of surface staining (W6/32)” value (from here on “MHC Class I, geometric mean”) ([1]; HeLa, three days, IFN-β 5000 Units/ml, IFN-γ 100 ng/ml, PU-H71 0.3) of the same molecule?
**A.** 402

**Q.** And the “MHC Class I, geometric mean” value ([1]; HeLa, three days, IFN-β 5000 Units/ml, PU-H71 0.075-0.3)?
**A.** 182

**Q.** What about the “Class I MHC, geometric mean” value ([2]; MCF-7, 4 day IFN-β pre-treatment (5000 Units/ml), then 3 days with fresh IFN-β, with PU-H71 0.3 mg/ml where labelled (label IFN-β: no inhibitor)) of the same molecule?
**A.** 213

**Q.** What about the “Class I MHC, geometric mean” value ([2]; MCF-7, 4 day IFN-β pre-treatment (5000 Units/ml), then 3 days without IFN-β, with PU-H71 0.3 mg/ml where labelled (label IFN-β: no inhibitor)) of the same molecule?
**A.** 227

**Q.** What about the “Class II induction, combination” value ([2]; MCF-7, PU-H71 and IFN-gamma) of the same molecule?
**A.** inhibited

**Q.** What about the “Class I stimulation induced with IFN-beta or IFN-gamma, combination” value ([2]; MCF-7, addition of PU-H71) of the same molecule?
**A.** diminished

**Q.** And the “L243 (MHC Class II surface staining)” value ([2]; MCF-7, single agent)?
**A.** 4.7

**Q.** And the “Class I MHC, geometric mean” value ([2]; MCF-7, single agent for 3 days, no IFN-β pre-treatment, IFN-β 5000 Units/ml, PU-H71 0.3 mg/ml)?
**A.** 61

**Q.** And the “MHC Class I, geometric mean” value ([2]; MCF-7, three days, IFN-β 5000 Units/ml, PU-H71 0.075-0.3 mg/ml)?
**A.** 61

**Q.** And the “L243 (MHC Class II surface staining)” value [2, 4]?
**A.** 4.7

**Q.** What about the “W6/32 (MHC Class I surface staining)” value [2, 4] of the same molecule?
**A.** 113.0

**Q.** What about the “Class II MHC expression over the tumor panel” value (tumor cell lines) of the same molecule?
**A.** no induction

From patent US20140335050A1, “METHODS, COMPOSITIONS, AND KITS FOR THE TREATMENT OF CANCER” (The General Hospital Corporation, priority 2011, published 2014)
